From paper PMC6572184, “New γ-Halo-δ-lactones and δ-Hydroxy-γ-lactones with Strong Cytotoxic Activity” (Molecules, 2019) come the findings set out here.

Like-named read-outs stand apart in the source and are kept apart here.

In data set [1] the test system is Escherichia coli ATCC 8739. Kind of data set: Bactericidal activity, CFU counting method. Particulars: E. coli ATCC 8739; 18 h at 37 °C; Control 9.47, Control with DMSO 9.30. In kind it is cell-based. The procedure: (§1) The bacterial cultures: Escherichia coli ATCC 8739 and Staphylococcus aureus ATCC 65389 were grown on Luria–Bertani Agar for 18 h at 37 ^∘ C. The strain suspension was prepared in 0.85% saline, with an optical density equivalent to a 0.5 McFarland standard. Next, the following mixtures were prepared: 180 μ L of sterile enriched broth (BTL), 10 μ L of the bacterial suspension and 10 μ L of the tested compound (range 0.1–50 μ g/mL) solubilized in DMSO. As a negative control, only DMSO was added. As a sterility control, 180 μ L of BTL and 20 μ L saline were used. The microtiter plate was incubated at 37 ^∘ C for 18 h. The colony forming unit (CFU) method was used to evaluate the microbial population. The experiment was repeated three times. Gentamicin was used as the reference antibiotic.

Data set [2] deals with Staphylococcus aureus ATCC 65389. Kind of data set: Bactericidal activity, CFU counting method. In kind it is cell-based. Particulars: S. aureus ATCC 65389; for Number of CFU/mL (× 10^7): 18 h at 37 °C, Control 21.36, Control with DMSO 20.85; for less CFU/mL (reduction of the number of CFU/mL): versus control. The procedure: as §1
Data set [3] is described as follows: MTT reduction cytotoxicity assay. It counts as cell-based, human. Particulars: human, AGS cells (human gastric adenocarcinoma), 24 h, read-out: mean percentage of viable cells ± SD. The procedure: (§2) Cell cultures: The L929 mouse fibroblasts and human gastric adenocarcinoma cell line AGS were used for in vitro cytotoxicity assays. The cells were maintained under standard conditions (37 ^∘ C, 5% CO 2 ) in 25 cm^2 tissue culture flasks in RPMI-1640 medium supplemented with 10% fetal bovine serum (FBS) and antibiotics: 100 U/mL penicillin and 100 μ g/mL streptomycin. The cell suspension containing 10 ^8 cells in 1 mL, was obtained by treatment of confluent monolayers with 0.25% trypsin solution, washed and subcultured. Cell cultures were supplemented with medium to maintain them in log phase growth. The viability of the cells was assessed by exclusion of trypan blue dye.
(§3) Measurements of cellular metabolic activity and global growth inhibition: L929 cells were seeded into 96-well plates (2 × 10 ^5 cells/well) for 24 h, at 37 ^∘ C, 5% CO2 . Tested compounds 5a–c, 6a–c, 7a–c, 8a–c, 9b,c, 10b,c, 12a and 13a were diluted serially in RPMI-1640 medium in concentrations of 50, 20, 10, 5, 0.5 and 0.1 μ g/mL, added to the cells (100 μ L/well), and incubated under standard conditions for 24 h. The potential harmful effect of lactones on L929 and AGS cells was assessed by the ability of the cells to reduce 3-(4,5-dimethylthiazol-2-yl)-2,5-diphenyltetrazolium bromide (MTT) to formazan. The solution of MTT (5 mg/mL in PBS), was added to each well and the plates were incubated for 4h at 37 ^∘ C. Formazan crystals were dissolved with acidic isopropanol (0.1 M HCl in absolute isopropanol) and the plates were read in a plate reader (Victor 2) at 570 nm. The percentage of MTT reduction was calculated by comparing the absorbance of treated cells to that of untreated control cells. Results are expressed as the mean percentage of viable cells ± standard deviation (SD) of four independent experiments. Statistical significance was accepted at a p-value < 0.05.
(In general: Tetrazolium assays rely on reduction of a dye to a coloured formazan, in cell work by metabolically active cells.)

In data set [4] the test system is AGS cell lines (human gastric adenocarcinoma). Kind of data set: MTT reduction cytotoxicity assay. It counts as cell-based. Particulars: for mean percentage of viable cells ± SD: 24 h. The procedure: as §2, §3
Data set [5] is described as follows: MTT reduction cytotoxicity assay. It counts as cell-based, mouse. Particulars: mouse, L929 cells (mouse fibroblasts), read-out: mean percentage of viable cells ± SD. As to the method:
as §2, §3

Data set [6] has as its system L929 cell lines (mouse fibroblasts). Kind of data set: MTT reduction cytotoxicity assay. In kind it is cell-based. Particulars: 24 h. As to the method: as §2, §3

Regarding `C[C@@H]1CC(=O)O[C@@H]1C(I)c1ccccc1` (relative stereo) [11b, Cis-dihydro-5-(iodo(phenyl)methyl)-4-methylfuran-2(3H)-one], the melting point (in general, the temperature, or range, at which the solid turns liquid) was 86 to 87 °C.

Regarding `C[C@@H]1CC(=O)O[C@@H]1[C@@H](O)c1cccc2ccccc12` [13a, Cis-dihydro-5-((S)-hydroxy(naphthalen-1-yl)methyl)-4-methylfuran-2(3H)-one], the melting point was in the range of 123 to 124 °C. Further, the “Number of CFU/mL (× 10^7)” value in data set [1] is 6.02 × 10^7 CFU/mL. For the same compound, the “Number of CFU/mL (× 10^7)” value in data set [2] was 9.12 × 10^7 CFU/mL. In addition, in data set [3], the viability at 24 h, 0.1 μg/mL stood at 44 ± 0.12%; the viability at 24 h, 0.5 μg/mL was 39 ± 0.09%; the viability at 24 h, 5 μg/mL is 29 ± 0.05%; the viability at 24 h, 10 μg/mL was determined as 18 ± 0.12%. In addition, in data set [3], the viability at 24 h, 20 μg/mL came out at 10 ± 0.1% and the viability at 24 h, 50 μg/mL came to 8 ± 0.08%. For the same compound, in data set [4] (Homo sapiens), it took 3.7 µM to reach half-maximal inhibition (IC50). Moreover, in data set [5], the viability at 24 h, 0.1 μg/mL amounted to 16 ± 0.09%; the viability at 24 h, 0.5 μg/mL was 12 ± 0.02%; the viability at 24 h, 5 μg/mL was 9 ± 0.03%; the viability at 24 h, 10 μg/mL was 6 ± 0.06%. For the same compound, in data set [5], the viability at 24 h, 20 μg/mL came out at 5 ± 0.12% and the viability at 24 h, 50 μg/mL was found to be 1 ± 0.07%.

In the case of `CC1CC(=O)OC(c2ccccc2)C1Br` (stereo not drawn) [7b, Trans,trans-5-bromo-tetrahydro-4-methyl-6-phenylpyran-2-one], the melting point was in the range of 111 to 112 °C. In addition, in data set [1], the “Number of CFU/mL (× 10^7)” value was 8.63 × 10^7 CFU/mL. Further, the “Number of CFU/mL (× 10^7)” value in data set [2] is 10.96 × 10^7 CFU/mL. Also, in data set [3], the viability at 24 h, 0.1 μg/mL worked out at 40 ± 0.1%; the viability at 24 h, 0.5 μg/mL was 25 ± 0.1%; the viability at 24 h, 5 μg/mL was determined as 23 ± 0.02%; the viability at 24 h, 10 μg/mL worked out at 20 ± 0.06%. Further, in data set [3], the viability at 24 h, 20 μg/mL was 14 ± 0.03% and the viability at 24 h, 50 μg/mL was 10 ± 0.06%. Further, the IC50 (commonly the concentration at which inhibition is half-maximal) in data set [4] (Homo sapiens) came out at 3.6 µM. In data set [5], the viability at 24 h, 0.1 μg/mL amounted to 25 ± 0.03%; the viability at 24 h, 0.5 μg/mL turned out to be 18 ± 0.08%; the viability at 24 h, 5 μg/mL was found to be 13 ± 0.12%; the viability at 24 h, 10 μg/mL came out at 10 ± 0.05%. For the same compound, in data set [5], the viability at 24 h, 20 μg/mL is 5 ± 0.15% and the viability at 24 h, 50 μg/mL was determined as 2 ± 0.09%.

For `C[C@@H]1CC(=O)O[C@H]1[C@@H](O)c1cccc2ccccc12` (mixture of isomers) [12a, Trans-dihydro-5-((S)-hydroxy(naphthalen-1-yl)methyl)-4-methylfuran-2(3H)-one], the “Number of CFU/mL (× 10^7)” value in data set [1] is recorded as 9.43 × 10^7 CFU/mL. In addition, in data set [2], the “bactericidal activity (in words)” value is “did not show bactericidal activity” and the “Number of CFU/mL (× 10^7)” value is recorded as 21.15 × 10^7 CFU/mL. In addition, in data set [3], the viability at 24 h, 0.1 μg/mL came to 39 ± 0.09%; the viability at 24 h, 0.5 μg/mL turned out to be 26 ± 0.05%; the viability at 24 h, 5 μg/mL came to 22 ± 0.09%; the viability at 24 h, 10 μg/mL was found to be 18 ± 0.05%. For the same compound, in data set [3], the viability at 24 h, 20 μg/mL worked out at 13 ± 0.08% and the viability at 24 h, 50 μg/mL worked out at 9 ± 0.1%. Further, 4.3 µM corresponded to half-maximal inhibition in data set [4] (Homo sapiens) (IC50). Besides, in data set [5], the viability at 24 h, 0.1 μg/mL came out at 19 ± 0.15%; the viability at 24 h, 0.5 μg/mL turned out to be 15 ± 0.05%; the viability at 24 h, 5 μg/mL turned out to be 10 ± 0.02%; the viability at 24 h, 10 μg/mL was 8 ± 0.06%. For the same compound, in data set [5], the viability at 24 h, 20 μg/mL was determined as 3 ± 0.03% and the viability at 24 h, 50 μg/mL was 2 ± 0.06%.

In the case of `C[C@@H]1CC(=O)O[C@@H]1C(O)c1ccccc1` (relative stereo) [13b, Cis-dihydro-5-(hydroxy(phenyl)methyl)-4-methylfuran-2(3H)-one], the melting point was 89 to 91 °C.

In turn, `CC1CC(=O)OC(c2cccc3ccccc23)C1Br` (stereo not drawn) [7a, Trans,trans-5-bromo-tetrahydro-4-methyl-6-(naphthalen-1-yl)pyran-2-one] registered a melting point of 197 to 198 °C. The “Number of CFU/mL (× 10^7)” value in data set [1] is given as 5.21 × 10^7 CFU/mL. In addition, in data set [2], the “Number of CFU/mL (× 10^7)” value is on record as 4.63 × 10^7 CFU/mL and the “less CFU/mL (reduction of the number of CFU/mL)” value is listed as 78–83%. In addition, in data set [3], the viability at 24 h, 0.1 μg/mL is 39 ± 0.02%; the viability at 24 h, 0.5 μg/mL stood at 26 ± 0.05%; the viability at 24 h, 5 μg/mL stood at 25 ± 0.1%; the viability at 24 h, 10 μg/mL was 21 ± 0.03%. Moreover, in data set [3], the viability at 24 h, 20 μg/mL was 20 ± 0.06% and the viability at 24 h, 50 μg/mL stood at 8 ± 0.03%. The compound further had an IC50 in data set [4] (Homo sapiens) of 2.1 µM. For the same compound, in data set [5], the viability at 24 h, 0.1 μg/mL stood at 25 ± 0.02%; the viability at 24 h, 0.5 μg/mL came to 18 ± 0.12%; the viability at 24 h, 5 μg/mL worked out at 12 ± 0.02%; the viability at 24 h, 10 μg/mL was 6 ± 0.07%. In data set [5], the viability at 24 h, 20 μg/mL came out at 2 ± 0.03% and the viability at 24 h, 50 μg/mL worked out at 1 ± 0.12%.

In the case of `C[C@@H]1CC(=O)O[C@@H]1C(O)c1ccc(F)cc1` (relative stereo) [13c, Cis-5-((4-fluorophenyl)(hydroxy)methyl)-dihydro-4-methylfuran-2(3H)-one], the melting point fell in the range of 118 to 119 °C.

`C[C@@H]1CC(=O)O[C@H]1C(O)c1ccc(F)cc1` (relative stereo) [12c, Trans-5-((4-fluorophenyl)(hydroxy)methyl)-dihydro-4-methylfuran-2(3H)-one] came in with a melting point of 118 to 119 °C.

In the case of `C[C@@H]1CC(=O)O[C@H]1C(O)c1ccccc1` (relative stereo) [12b, Trans-dihydro-5-(hydroxy(phenyl)methyl)-4-methylfuran-2(3H)-one], the melting point lay in the range of 86 to 87 °C.

`CC1CC(=O)OC(c2ccc(F)cc2)C1Br` (mixture of isomers) [8c, Cis,trans-5-bromo-6-(4-fluorophenyl)-tetrahydro-4-methylpyran-2-one]: the “Number of CFU/mL (× 10^7)” value is recorded as 8.87 × 10^7 CFU/mL in data set [1] and 3.60 × 10^7 CFU/mL in data set [2]. Moreover, the “less CFU/mL (reduction of the number of CFU/mL)” value in data set [2] is reported as 78–83%. Besides, in data set [4], inhibition was half-maximal at 2.5 µM (IC50). The “mean percentage of viable cells ± SD” value in data set [4] (0.1 μg/mL) was 69 ± 0.15%; in data set [4] (0.5 μg/mL), 58 ± 0.10%; in data set [4] (5 μg/mL), 43 ± 0.10%; in data set [4] (10 μg/mL) it was 18 ± 0.07%; in data set [4] (20 μg/mL), 11 ± 0.03%; in data set [4] (50 μg/mL), 10 ± 0.09%. For the same compound, the “mean percentage of viable cells ± SD” value in data set [6] (0.1 μg/mL) is listed as 25 ± 0.03%; in data set [6] (0.5 μg/mL), 20 ± 0.08%; in data set [6] (5 μg/mL) it was 15 ± 0.03%; in data set [6] (10 μg/mL) it was 11 ± 0.03%; in data set [6] (20 μg/mL), 5 ± 0.02%; in data set [6] (50 μg/mL), 1 ± 0.05%.

In the case of `C[C@@H]1CC(=O)O[C@@H]1C(I)c1ccc(F)cc1` (relative stereo) [11c, Cis-5-((4-fluorophenyl)iodomethyl)-dihydro-4-methylfuran-2(3H)-one], the melting point lay within 118 to 119 °C.
